Measurements as given in patent US20120245177A1, “CRYSTALLINE LEVOFOLINIC ACID AND PROCESS FOR ITS PREPARATION” (GMT FINE CHEMICALS SA, priority 2011, published 2012).

How the values were obtained:
[1] = Accelerated stability test (ICH conditions); assay type: physicochemical; conditions: accelerated: 40±2° C., 75±5% relative humidity; for Assay of Levofolinic acid (% m/m): anhydrous and solvent free basis; for Appearance: specification white to pale yellow powder
Method: (§1) Two specimens of the product obtained in example 1 are subjected to accelerated stability tests and long-term stability tests, respectively; the tests are carried out according to ICH conditions. Accelerated: 40±2° C., 75±5% relative humidity Analytical methods used for the stability studies tests are described in the calcium levofolinate monograph of the European Pharmacopoeia.

[2] = Long-term stability test (ICH conditions); assay type: physicochemical; conditions: long-term: 25±2° C., 60±5% relative humidity; for Assay of Levofolinic acid (% m/m): anhydrous and solvent free basis; for Appearance: specification white to pale yellow powder
Method: as §1, with “Long-term: 25±2°” for “Accelerated: 40±2°”, “60±5%” for “75±5%”

Nc1nc(=O)c2c([nH]1)NC[C@H](CNc1ccc(C(=O)N[C@@H](CCC(=O)O)C(=O)O)cc1)N2C=O [Example 1, (6S)—N(5)-formyl-5,6,7,8-tetrahydrofolic acid]
Aspect of a 1.0% w/v solution in Tris buffer solution corrected at pH = 8.1: Absorbance at 420 nm ([1]; 0 months): 0.06 | Content of Dextrofolinic acid (H) ([1]; 0 months): <0.10% | Optical rotation of a 1.0% w/v solution in Tris solution corrected at pH = 8.1 ([1]; 0 months): −12.8 ° | Related substances: 5-CHO—4H-Pteroic acid (E) (% area) ([1]; 0 months): 0.36 % area | Related substances: Any individual unknown impurities ([1]; 0 months): <0.10 % area | Related substances: Dihydrofolic acid (G) (% area) ([1]; 0 months): <0.10 % area | Related substances: Folic acid (C) (% area) ([1]; 0 months): <0.10 % area | Related substances: N^5-N^10-diformyl-THF (B) (% area) ([1]; 0 months): <0.10 % area | Related substances: N^10—CHO-dihydrofolic acid (F) (% area) ([1]; 0 months): <0.10 % area | Related substances: N^10—CHO-folic acid (D) (% m/m) ([1]; 0 months): <0.10 % m/m | Related substances: PABG (A) (% area) ([1]; 0 months): <0.10 % area | Sum of all relates substances (% area) ([1]; 0 months): 0.57 % area | Water content (%) ([1]; 0 months): 0.8% | Assay of Levofolinic acid (% m/m) ([1]; 0 months): 99.7 % m/m | Appearance ([1]; 0 months): Conform | Aspect of a 1.0% w/v solution in Tris buffer solution corrected at pH = 8.1: Absorbance at 420 nm ([1]; 3 months): 0.05 | Related substances: 5-CHO—4H-Pteroic acid (E) (% area) ([1]; 3 months): 0.37 % area | Related substances: Any individual unknown impurities ([1]; 3 months): <0.10 % area | Related substances: Dihydrofolic acid (G) (% area) ([1]; 3 months): <0.10 % area | Related substances: Folic acid (C) (% area) ([1]; 3 months): <0.10 % area | Related substances: N^5-N^10-diformyl-THF (B) (% area) ([1]; 3 months): <0.10 % area | Related substances: N^10—CHO-dihydrofolic acid (F) (% area) ([1]; 3 months): 0.16 % area | Related substances: N^10—CHO-folic acid (D) (% m/m) ([1]; 3 months): <0.10 % m/m | Related substances: PABG (A) (% area) ([1]; 3 months): <0.10 % area | Sum of all relates substances (% area) ([1]; 3 months): 0.63 % area | Water content (%) ([1]; 3 months): 0.8% | Assay of Levofolinic acid (% m/m) ([1]; 3 months): 99.9 % m/m | Appearance ([1]; 3 months): Conform | Aspect of a 1.0% w/v solution in Tris buffer solution corrected at pH = 8.1: Absorbance at 420 nm ([1]; 6 months): 0.06 | Content of Dextrofolinic acid (H) ([1]; 6 months): <0.10% | Related substances: 5-CHO—4H-Pteroic acid (E) (% area) ([1]; 6 months): 0.33 % area | Related substances: Any individual unknown impurities ([1]; 6 months): <0.10 % area | Related substances: Dihydrofolic acid (G) (% area) ([1]; 6 months): <0.10 % area | Related substances: Folic acid (C) (% area) ([1]; 6 months): <0.10 % area | Related substances: N^5-N^10-diformyl-THF (B) (% area) ([1]; 6 months): <0.10 % area | Related substances: N^10—CHO-dihydrofolic acid (F) (% area) ([1]; 6 months): 0.25 % area | Related substances: N^10—CHO-folic acid (D) (% m/m) ([1]; 6 months): <0.10 % m/m | Related substances: PABG (A) (% area) ([1]; 6 months): 0.13 % area | Sum of all relates substances (% area) ([1]; 6 months): 0.84 % area | Water content (%) ([1]; 6 months): 1.1% | Assay of Levofolinic acid (% m/m) ([1]; 6 months): 99.0 % m/m | Appearance ([1]; 6 months): Conform | Aspect of a 1.0% m/V solution in Tris solution corrected at pH = 8.1: Absorbance at 420 nm ([2]; 0 months): 0.06 | Content of Dextrofolinic acid (H) ([2]; 0 months): <0.10% | Optical rotation of a 1.0% m/V solution in Tris solution corrected at pH = 8.1 ([2]; 0 months): −12.8 ° | Related substances: 5-CHO-4H-Pteroic acid (E) (% area) ([2]; 0 months): 0.36 % area | Related substances: Any individual unknown impurities ([2]; 0 months): <0.10 % area | Related substances: Dihydrofolic acid (G) (% area) ([2]; 0 months): <0.10 % area | Related substances: Folic acid (C) (% area) ([2]; 0 months): <0.10 % area | Related substances: N^5-N^10-diformyl-THF (B) (% area) ([2]; 0 months): <0.10 % area | Related substances: N^10-CHO-dihydrofolic acid (F) (% area) ([2]; 0 months): <0.10 % area | Related substances: N^10-CHO-folic acid (D) (% m/m) ([2]; 0 months): <0.10 % m/m | Related substances: PABG (A) (% area) ([2]; 0 months): <0.10 % area | Sum of all relates substances (% area) ([2]; 0 months): 0.57 % area | Water content (%) ([2]; 0 months): 0.8% | Assay of Levofolinic acid (% m/m) ([2]; 0 months): 99.7 % m/m | Appearance ([2]; 0 months): Conform | Aspect of a 1.0% m/V solution in Tris solution corrected at pH = 8.1: Absorbance at 420 nm ([2]; 3 months): 0.05 | Related substances: 5-CHO-4H-Pteroic acid (E) (% area) ([2]; 3 months): 0.31 % area | Related substances: Any individual unknown impurities ([2]; 3 months): <0.10 % area | Related substances: Dihydrofolic acid (G) (% area) ([2]; 3 months): <0.10 % area | Related substances: Folic acid (C) (% area) ([2]; 3 months): <0.10 % area | Related substances: N^5-N^10-diformyl-THF (B) (% area) ([2]; 3 months): <0.10 % area | Related substances: N^10-CHO-dihydrofolic acid (F) (% area) ([2]; 3 months): 0.13 % area | Related substances: N^10-CHO-folic acid (D) (% m/m) ([2]; 3 months): <0.10 % m/m | Related substances: PABG (A) (% area) ([2]; 3 months): <0.10 % area | Sum of all relates substances (% area) ([2]; 3 months): 0.49 % area | Water content (%) ([2]; 3 months): 0.8% | Assay of Levofolinic acid (% m/m) ([2]; 3 months): 100.6 % m/m | Appearance ([2]; 3 months): Conform | Aspect of a 1.0% m/V solution in Tris solution corrected at pH = 8.1: Absorbance at 420 nm ([2]; 6 months): 0.06 | Content of Dextrofolinic acid (H) ([2]; 6 months): <0.10% | Related substances: 5-CHO-4H-Pteroic acid (E) (% area) ([2]; 6 months): 0.34 % area | Related substances: Any individual unknown impurities ([2]; 6 months): <0.10 % area | Related substances: Dihydrofolic acid (G) (% area) ([2]; 6 months): <0.10 % area | Related substances: Folic acid (C) (% area) ([2]; 6 months): <0.10 % area | Related substances: N^5-N^10-diformyl-THF (B) (% area) ([2]; 6 months): <0.10 % area | Related substances: N^10-CHO-dihydrofolic acid (F) (% area) ([2]; 6 months): 0.15 % area
